Results: patent US20090012103A1, “SUBSTITUTED HETEROCYCLIC COMPOUNDS” (priority 2007, published 2009)

Target: wild-type human cardiac sodium channel, hNav1.5 (Homo sapiens, UniProt Q14524)
Assay: Late INa screening assay (late sodium current, PatchXpress whole cell patch clamp)
Type: cell-based
Details: compound at 10 μM; read-out: Late INa % blk

Chain of wild-type human cardiac sodium channel, hNav1.5 (Q14524 whole entry): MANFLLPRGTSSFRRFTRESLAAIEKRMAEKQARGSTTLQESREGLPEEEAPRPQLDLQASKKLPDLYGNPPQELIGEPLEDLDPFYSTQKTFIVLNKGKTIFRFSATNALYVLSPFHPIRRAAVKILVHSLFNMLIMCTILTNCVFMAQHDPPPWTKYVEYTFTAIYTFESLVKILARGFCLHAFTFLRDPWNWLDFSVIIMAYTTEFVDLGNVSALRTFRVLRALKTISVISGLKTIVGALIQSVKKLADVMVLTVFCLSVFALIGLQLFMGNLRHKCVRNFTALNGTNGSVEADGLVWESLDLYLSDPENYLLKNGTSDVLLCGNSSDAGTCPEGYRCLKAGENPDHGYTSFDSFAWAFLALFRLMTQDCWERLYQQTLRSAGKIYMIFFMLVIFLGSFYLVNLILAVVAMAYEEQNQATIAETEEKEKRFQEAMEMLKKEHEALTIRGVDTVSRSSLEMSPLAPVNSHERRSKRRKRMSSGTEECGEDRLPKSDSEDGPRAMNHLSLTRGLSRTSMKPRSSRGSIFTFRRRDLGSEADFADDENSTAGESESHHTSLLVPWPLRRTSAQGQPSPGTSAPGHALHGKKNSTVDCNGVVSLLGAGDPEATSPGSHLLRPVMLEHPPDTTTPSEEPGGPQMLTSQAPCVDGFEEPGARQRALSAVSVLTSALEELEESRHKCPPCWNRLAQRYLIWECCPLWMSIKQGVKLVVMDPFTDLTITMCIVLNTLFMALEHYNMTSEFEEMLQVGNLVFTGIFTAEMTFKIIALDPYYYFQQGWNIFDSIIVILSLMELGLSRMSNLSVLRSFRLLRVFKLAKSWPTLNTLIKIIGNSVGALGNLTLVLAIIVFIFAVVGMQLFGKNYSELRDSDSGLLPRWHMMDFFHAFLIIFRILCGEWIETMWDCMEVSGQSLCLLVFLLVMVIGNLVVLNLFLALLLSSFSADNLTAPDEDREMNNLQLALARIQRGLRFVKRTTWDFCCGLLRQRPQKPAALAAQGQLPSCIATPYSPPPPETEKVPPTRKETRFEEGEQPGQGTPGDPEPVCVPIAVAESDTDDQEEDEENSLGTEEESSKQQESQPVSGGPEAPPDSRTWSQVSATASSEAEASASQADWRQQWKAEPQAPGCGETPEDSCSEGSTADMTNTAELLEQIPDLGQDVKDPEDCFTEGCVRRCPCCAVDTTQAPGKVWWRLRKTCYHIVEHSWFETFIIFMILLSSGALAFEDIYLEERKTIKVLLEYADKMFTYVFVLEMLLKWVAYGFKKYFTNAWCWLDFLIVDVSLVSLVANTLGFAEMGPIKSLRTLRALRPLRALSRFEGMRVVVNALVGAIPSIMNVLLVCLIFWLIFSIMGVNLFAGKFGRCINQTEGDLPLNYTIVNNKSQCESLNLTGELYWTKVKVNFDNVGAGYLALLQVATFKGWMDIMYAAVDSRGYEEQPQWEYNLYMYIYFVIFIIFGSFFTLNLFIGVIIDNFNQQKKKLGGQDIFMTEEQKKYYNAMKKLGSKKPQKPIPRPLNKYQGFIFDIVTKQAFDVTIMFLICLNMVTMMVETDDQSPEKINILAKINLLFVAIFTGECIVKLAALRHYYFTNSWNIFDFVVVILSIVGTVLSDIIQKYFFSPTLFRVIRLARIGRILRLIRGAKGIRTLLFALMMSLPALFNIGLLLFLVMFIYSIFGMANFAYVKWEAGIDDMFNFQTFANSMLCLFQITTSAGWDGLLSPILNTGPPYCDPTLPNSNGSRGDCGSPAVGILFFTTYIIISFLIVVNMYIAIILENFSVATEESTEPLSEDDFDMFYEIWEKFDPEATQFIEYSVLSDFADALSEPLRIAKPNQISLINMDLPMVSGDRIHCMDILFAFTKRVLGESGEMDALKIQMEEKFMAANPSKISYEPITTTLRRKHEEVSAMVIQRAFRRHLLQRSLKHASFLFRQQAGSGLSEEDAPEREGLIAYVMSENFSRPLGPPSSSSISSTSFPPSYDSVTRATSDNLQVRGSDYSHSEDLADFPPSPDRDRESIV

| SMILES | inhibition at 10 µM [%] |
| --- | --- |
| CCOC(=O)C1=C(C)NC(C)=C(C(=O)OCC)C1c1ccc(CC)o1 [PT-121, diethyl 4-(5-ethylfuran-2-yl)-2,6-dimethyl-1,4-dihydropyridine-3,5-dicarboxylate] | 54.8 |
| COc1ccc(COC(=O)C2=C(C)NC(C)=C(C(=O)OCc3ccc(OC)c(OC)c3)C2c2ccc3ccccc3c2)cc1OC [PT-130, bis(3,4-dimethoxybenzyl) 2,6-dimethyl-4-(naphthalen-2-yl)-1,4-dihydropyridine-3,5-dicarboxylate] | 15.7 |
| COc1cc(-c2nnn[nH]2)ccc1C1C(C(=O)OCc2ccccc2)=C(C)Nc2nnnn21 (stereo not drawn) [PT-393, benzyl 7-(2-methoxy-4-(1H-tetrazol-5-yl)phenyl)-5-methyl-4,7-dihydrotetrazolo[1,5-a]pyrimidine-6-carboxylate] | 9.8 |
| CC1=C(C(=O)OCc2ccccc2)C(c2ccc(Br)cc2F)n2nnnc2N1 (stereo not drawn) [PT-416, benzyl 7-(4-bromo-2-fluorophenyl)-5-methyl-4,7-dihydrotetrazolo[1,5-a]pyrimidine-6-carboxylate] | 25.6 |
| CC1=C(C(=O)OCc2ccccc2)C(c2ccccc2)c2cn[nH]c2N1 (stereo not drawn) [PT-372, benzyl 6-methyl-4-phenyl-4,7-dihydro-1H-pyrazolo[3,4-b]pyridine-5-carboxylate] | 20.8 |
| COc1ccc2ccccc2c1C1C(C(=O)O[C@@H](C)c2ccccc2)=C(C)Nc2nnnn21 (stereo partly drawn) [PT-053, (S)-1-phenylethyl 7-(2-methoxynaphthalen-1-yl)-5-methyl-4,7-dihydrotetrazolo[1,5-a]pyrimidine-6-carboxylate] | 53.6 |
| CC1=C(C(=O)OCc2ccc(Cn3cccn3)cc2)C(c2ccc(N(C)C)c3ccccc23)n2nnnc2N1 (stereo not drawn) [PT-283, 4-((1H-pyrazol-1-yl)methyl)benzyl 7-(4-(dimethylamino)naphthalen-1-yl)-5-methyl-4,7-dihydrotetrazolo[1,5-a]pyrimidine-6-carboxylate] | 11.4 |
| CC1=C(C(=O)OC(C)C)C(c2cnn(-c3ccccc3C)c2C)C2=C(CC(C)(C)CC2=O)N1 (stereo not drawn) [PT-161, isopropyl 2,7,7-trimethyl-4-(5-methyl-1-o-tolyl-1H-pyrazol-4-yl)-5-oxo-1,4,5,6,7,8-hexahydroquinoline-3-carboxylate] | 6.8 |
| COC(=O)C1=C(C)Nc2nnnn2C1c1ccccc1I (stereo not drawn) [PT-519, methyl 7-(2-iodophenyl)-5-methyl-4,7-dihydrotetrazolo[1,5-a]pyrimidine-6-carboxylate] | 27.3 |
| CC1=C(C(=O)NNC(=O)Cc2ccccc2)C(c2cccc3ccccc23)n2nnnc2N1 (stereo not drawn) [PT-309, 5-methyl-7-(naphthalen-1-yl)-N′-(2-phenylacetyl)-4,7-dihydrotetrazolo[1,5-a]pyrimidine-6-carbohydrazide] | 8.2 |
| CCOC(=O)C1=C(C)NC2=C(C(=O)CCC2)C1c1ccc2cc(OC)ccc2c1 (stereo not drawn) [PT-137, ethyl 4-(6-methoxynaphthalen-2-yl)-2-methyl-5-oxo-1,4,5,6,7,8-hexahydroquinoline-3-carboxylate] | 25.3 |
| CC1=C(C(=O)OCc2ccccc2)C(c2ccccc2OCc2ccccc2)C2=C(CCCC2=O)N1 (stereo not drawn) [PT-328, benzyl 4-(2-(benzyloxy)phenyl)-2-methyl-5-oxo-1,4,5,6,7,8-hexahydroquinoline-3-carboxylate] | 58.1 |
| CC1=C(C(=O)OCc2ccccc2)C(c2cc3ccccc3s2)C2=C(CCCC2=O)N1 (stereo not drawn) [PT-335, benzyl 4-(benzo[b]thiophen-2-yl)-2-methyl-5-oxo-1,4,5,6,7,8-hexahydroquinoline-3-carboxylate] | 58.1 |
| CC1=C(C(=O)OCc2ccccc2)C(c2ccccc2-c2ccc(S(C)(=O)=O)cc2)n2nnnc2N1 (stereo not drawn) [PT-354, benzyl 5-methyl-7-(4′-(methylsulfonyl)biphenyl-2-yl)-4,7-dihydrotetrazolo[1,5-a]pyrimidine-6-carboxylate] | 64.7 |
| COC(=O)C1=C(C)Nc2[nH]ncc2C1c1nc(C)cs1 (stereo not drawn) [PT-515, methyl 6-methyl-4-(4-methylthiazol-2-yl)-4,7-dihydro-1H-pyrazolo[3,4-b]pyridine-5-carboxylate] | 10.8 |
| COc1ccc(C2C(C(=O)OCc3ccccc3)=C(C)Nc3nnnn32)c(OCc2ccccc2)c1 (stereo not drawn) [PT-380, benzyl 7-(2-(benzyloxy)-4-methoxyphenyl)-5-methyl-4,7-dihydrotetrazolo[1,5-a]pyrimidine-6-carboxylate] | 70.9 |
| CC1=C(C(=O)OCc2ccc(C#N)cc2)C(c2cccc3ccccc23)n2nnnc2N1 (stereo not drawn) [PT-046, 4-cyanobenzyl 5-methyl-7-(naphthalen-1-yl)-4,7-dihydrotetrazolo[1,5-a]pyrimidine-6-carboxylate] | 67 |
| CCOC(=O)C1=C(C)Nc2ccnn2C1c1ccccc1OCCN(C)C (stereo not drawn) [PT-478, ethyl 7-(2-(2-(dimethylamino)ethoxy)phenyl)-5-methyl-4,7-dihydropyrazolo[1,5-a]pyrimidine-6-carboxylate] | 34.3 |
| CCOC(=O)C1=C(C)NC2=C(C(=O)c3ccccc32)C1c1cccs1 (stereo not drawn) [PT-187, ethyl 2-methyl-5-oxo-4-(thiophen-2-yl)-4,5-dihydro-1H-indeno[1,2-b]pyridine-3-carboxylate] | -2.6 |
| CC1=C(C(=O)OCc2ccccc2)C(c2cc(Br)ccc2OCc2ccccc2)n2nnnc2N1 (stereo not drawn) [PT-381, benzyl 7-(2-(benzyloxy)-5-bromophenyl)-5-methyl-4,7-dihydrotetrazolo[1,5-a]pyrimidine-6-carboxylate] | 43.7 |
| CCOC(=O)C1=C(C)Nc2nnnn2C1c1ccc(C2C(C(=O)OCC)=C(C)Nc3nnnn32)cc1 (stereo not drawn) [PT-201, diethyl 7,7′-(1,4-phenylene)bis(5-methyl-4,7-dihydrotetrazolo[1,5-a]pyrimidine-6-carboxylate)] | 7.8 |
| CCOC(=O)C1=C(C)NC(C)=C(C(=O)OCC)C1c1ccccc1-c1ccccc1 [PT-438, diethyl 4-(biphenyl-2-yl)-2,6-dimethyl-1,4-dihydropyridine-3,5-dicarboxylate] | 20.9 |
| CC1=C(C(=O)OCc2ccc(I)cc2)C(c2cccc3ccccc23)n2nnnc2N1 (stereo not drawn) [PT-029, 4-iodobenzyl 5-methyl-7-(naphthalen-1-yl)-4,7-dihydrotetrazolo[1,5-a]pyrimidine-6-carboxylate] | 52.1 |
| COC(=O)c1ccc(C2C(C(=O)OCc3ccccc3)=C(C)Nc3nnnn32)c([N+](=O)[O-])c1 (stereo not drawn) [PT-411, benzyl 7-(4-(methoxycarbonyl)-2-nitrophenyl)-5-methyl-4,7-dihydrotetrazolo[1,5-a]pyrimidine-6-carboxylate] | 11.4 |
| O=C1OCc2nc3[nH]ncc3c(-c3cccc4ccccc34)c21 [PT-301, 4-(naphthalen-1-yl)-1H-furo[3,4-e]pyrazolo[3,4-b]pyridin-5(7H)-one] | 21.6 |
| CCOC(=O)C1=C(CC)NC2=C(C(=O)CCC2)C1c1ccc(OC)c2ccccc12 (stereo not drawn) [PT-136, ethyl 2-ethyl-4-(4-methoxynaphthalen-1-yl)-5-oxo-1,4,5,6,7,8-hexahydroquinoline-3-carboxylate] | 45.2 |
| CC1=C(C(=O)OCc2ccccc2)C(c2cccc3ccccc23)c2c(-c3cccs3)n[nH]c2N1 (stereo not drawn) [PT-076, benzyl 6-methyl-4-(naphthalen-1-yl)-3-(thiophen-2-yl)-4,7-dihydro-1H-pyrazolo[3,4-b]pyridine-5-carboxylate] | -4.3 |
